In publication PMC7213978, “The dynamic interplay of host and viral enzymes in type III CRISPR-mediated cyclic nucleotide signalling” (eLife, 2020):
pKd: −log10 of the molar value.

Target: T1, AcrIII-1 (SIRV1 gp29) (Sulfolobus islandicus rod-shaped virus 1, UniProt Q8QL27, H47A)
T1 construct: gene 114
Assay: biochemical

T1 sequence (Q8QL27 whole entry H47A): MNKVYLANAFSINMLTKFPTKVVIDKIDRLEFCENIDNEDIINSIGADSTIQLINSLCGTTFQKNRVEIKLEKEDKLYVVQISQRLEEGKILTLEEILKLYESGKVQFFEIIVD

For Nc1ncnc2c1ncn2[C@@H]1O[C@@H]2COP(=O)(O)O[C@H]3[C@@H](O)[C@H](n4cnc5c(N)ncnc54)O[C@@H]3COP(=O)(O)O[C@H]3[C@@H](O)[C@H](n4cnc5c(N)ncnc54)O[C@@H]3COP(=O)(O)O[C@H]3[C@@H](O)[C@H](n4cnc5c(N)ncnc54)O[C@@H]3COP(=O)(O)O[C@H]2[C@H]1O [cA4, cyclic tetra-adenylate], the pKd was ~7.60.
